Experimental data published in patent US9062321B2 (priority 2004, dated 2015).

Experiments:
BuChE [1] = molecular target: T1, BuChE (Homo sapiens, UniProt P06276); test: Sensitivity of BuChE to cholinesterase inhibitors (background); type: biochemical; conditions: ratio of Ki BuChE to Ki AChE
BuChE [2] = molecular target: T1, BuChE; conditions: in words; cited from earlier work

T1 sequence (P06276 29-602): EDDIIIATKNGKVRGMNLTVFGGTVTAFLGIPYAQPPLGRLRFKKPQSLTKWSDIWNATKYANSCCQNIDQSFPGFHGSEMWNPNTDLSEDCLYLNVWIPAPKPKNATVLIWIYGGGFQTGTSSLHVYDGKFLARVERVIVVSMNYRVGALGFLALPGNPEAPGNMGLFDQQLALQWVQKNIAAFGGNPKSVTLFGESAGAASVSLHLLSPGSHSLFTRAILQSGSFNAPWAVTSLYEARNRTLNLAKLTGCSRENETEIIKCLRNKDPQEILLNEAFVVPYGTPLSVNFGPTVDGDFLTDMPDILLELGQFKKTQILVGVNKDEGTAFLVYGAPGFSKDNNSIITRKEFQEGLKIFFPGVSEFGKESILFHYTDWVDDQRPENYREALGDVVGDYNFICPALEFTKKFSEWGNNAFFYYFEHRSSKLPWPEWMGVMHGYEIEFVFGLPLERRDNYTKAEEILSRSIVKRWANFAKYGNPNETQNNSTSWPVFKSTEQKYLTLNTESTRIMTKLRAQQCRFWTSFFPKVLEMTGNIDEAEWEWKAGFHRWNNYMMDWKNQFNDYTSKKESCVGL

Compound | difference in sensitivity of BuChE compared to AChE (BuChE [1]) [fold] | sensitivity of BuChE to the inhibitor compared with AChE (BuChE [2])
C=CC[N+](C)(C)c1ccc(CCC(=O)CCc2ccc([N+](C)(C)CC=C)cc2)cc1 [BW284c51, 1,5-bis(4-allyldimethylammoniumphenyl)pentan-3-one dibromide] | 1400 | 
CC(C)NP(=O)(NC(C)C)OP(=O)(NC(C)C)NC(C)C [Iso-OMPA, tetraisopropyl pyrophosphoramide] |  | much more sensitive
